US10213415B2, “Compounds as opioid receptor modulators” (JANSSEN PHARMACEUTICA NV, priority 2004, dated 2019)
“And” between values parts separate entries of the source, which are not always exact repeats. Equal entries are not always repeated. Where two headings read alike, the source gives them in different places.

How the values were obtained:
[1] = molecular target: T1, delta opioid receptor (CHO-hδ cell membranes) (Homo sapiens, UniProt P41143); assay: Delta Opioid Receptor Functional Assay: [35S]GTPγS Binding in CHO-hδ Cell Membranes, Version 1; type: biochemical; conditions: read-out: DOR GTP-binding Assay_v1 EC50
T1 construct: purchased Receptor Biology, Inc. (Baltimore, Md.); host or cells: CHO cells (recombinant expression)
Method: CHO-hδ cell membranes were purchased from Receptor Biology, Inc. (Baltimore, Md.). 10 mg/ml of membrane protein suspended in 10 mM TRIS-HC pH 7.2, 2 mM EDTA, 10% sucrose.
Membranes were maintained at 4-8° C. A portion (1 ml) of membranes was added into 15 mL cold binding assay buffer. The assay buffer contained 50 mM HEPES, pH 7.6, 5 mM MgCl2, 100 mM NaCl, 1 mM DTT and 1 mM EDTA. The membrane suspension was homogenized with a Polytron for 2 times and centrifuged at 3000 rpm for 10 min. The supernent was then centrifuged at 18,000 rpm for 20 min. The pellet was saved in a tube and 10 ml assay buffer was added into the tube. The pellet and buffer were mixed with a Polytron.
The pellet membranes (20 μg/ml) were preincubated with SPA (10 mg/ml) at 25° C. for 45 min in the assay buffer. The SPA (5 mg/ml) coupled with membranes (10 μg/ml) was then incubated with 0.5 nM [^35S]GTPγS in the same HEPES buffer containing 50 μM GDP in total volume of 200 μl. Increasing concentrations of receptor agonists were used to stimulate [^35S]GTPγS binding. The basal binding was tested in the absent agonists and no specific binding was tested in the present 10 μM unlabeled GTPγS. The data were analyzed on a Top counter.
Data The % of Basal=(stimulate−non specific)*100/(basal−non specific). EC50 values were calculated using a Prism program.

[2] = molecular target: T2, mu opioid receptor (CHO-hMOR cell membranes) (Homo sapiens, UniProt P35372); assay: Mu Opioid Receptor Functional Assay: [35S]GTPγS Binding in CHO-hMOR Cell Membranes, Versions 1 and 2; type: biochemical; conditions: for MOR GTP binding assay_v1 (% I): version 1, % inhibition of agonist-stimulated GTPγS binding; for MOR GTP assay_v1 % of Basal: version 1, basal binding = 100%; for MOR GTP binding assay_v2 (% I): version 2, % inhibition of agonist-stimulated GTPγS binding; for EC50: version 2, read-out: MOR GTP binding assay v2 EC50
T2 construct: purchased Receptor Biology, Inc. (Baltimore, Md.); host or cells: CHO cells (recombinant expression)
Outline: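 Agonist-stimulated [35S]GTPγS (0.5 nM) binding measured by SPA in human MOR CHO membranes, buffer pH 7.6 with 100 mM NaCl, 5 mM MgCl2. Antagonist mode: % inhibition of stimulation by 1 μM SNC80; agonist mode: EC50 fitted. Basal binding without agonist, non-specific with 10 μM cold GTPγS.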

[3] = test system: novel environment-stressed mice; assay: In Vivo Assay-Stress-Induced Fecal Output (Fecal Output for 1 hr); design: species or system mouse; conditions: for response vs control in vivo at 30 mg/kg: Mus musculus, po, 1 h
Outline: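 Adult male Crl:CD-1(ICR) mice (˜30-35 g; at least 10 per dose group) were split into acclimated non-stressed controls, held individually for 16-18 hr in wire-mesh-bottom cages, and non-acclimated stressed groups. Mice were dosed intragastrically with vehicle or test compound in 0.5% methylcellulose, housed individually in novel cages over absorbent cardboard, and fecal pellets per mouse were counted hourly.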

[4] = 30 mg/kg oral, relative to novel environment stress (NES) vehicle group, 1 hr, read-out: Fecal Output cpd % NES

T2 sequence (P35372 whole entry): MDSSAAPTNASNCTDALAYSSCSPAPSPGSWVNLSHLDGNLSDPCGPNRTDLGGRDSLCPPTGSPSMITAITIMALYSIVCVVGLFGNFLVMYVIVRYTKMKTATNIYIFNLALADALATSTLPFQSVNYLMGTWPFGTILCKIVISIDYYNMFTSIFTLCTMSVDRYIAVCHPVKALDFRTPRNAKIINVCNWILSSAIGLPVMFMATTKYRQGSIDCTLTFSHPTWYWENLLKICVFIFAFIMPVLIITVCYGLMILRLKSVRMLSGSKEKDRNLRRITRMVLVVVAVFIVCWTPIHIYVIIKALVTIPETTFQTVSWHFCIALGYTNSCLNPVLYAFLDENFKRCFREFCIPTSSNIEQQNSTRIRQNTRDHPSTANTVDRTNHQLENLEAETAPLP
T1 sequence (P41143 whole entry): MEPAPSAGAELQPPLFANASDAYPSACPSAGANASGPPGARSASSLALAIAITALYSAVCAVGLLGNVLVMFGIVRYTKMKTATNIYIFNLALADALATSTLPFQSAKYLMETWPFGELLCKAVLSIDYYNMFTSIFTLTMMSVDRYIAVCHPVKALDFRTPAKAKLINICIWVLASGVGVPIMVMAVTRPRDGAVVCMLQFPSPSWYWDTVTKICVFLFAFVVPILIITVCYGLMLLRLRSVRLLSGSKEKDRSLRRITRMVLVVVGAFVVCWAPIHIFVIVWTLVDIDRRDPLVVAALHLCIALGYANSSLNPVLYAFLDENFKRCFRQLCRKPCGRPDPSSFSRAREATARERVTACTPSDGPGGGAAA

With `Cc1cc(O)cc(C)c1C[C@H](N)C(=O)N(Cc1nc(-c2ccccc2)c(C)[nH]1)C(C)C` [Cpd 166] the EC50 [1] was 21 nM and 71 nM and the “MOR GTP binding assay_v1 (% I)” value [2] was 1.00%.

`Cc1cc(O)cc(C)c1C[C@H](N)C(=O)N(Cc1nc(-c2ccc(F)cc2)c(C)[nH]1)C(C)C` [Cpd 163] was tested, and the EC50 [1] was 21 nM and the “MOR GTP binding assay_v1 (% I)” value [2] was 1.00%.

With `C[C@H](c1nc(-c2ccccc2)c[nH]1)N(C)C(=O)[C@@H](N)Cc1ccc(C(N)=O)cc1` [Cpd 203] the EC50 [1] was 515 nM, the “MOR GTP binding assay_v1 (% I)” value [2] was 20.00% and the “MOR GTP assay_v1 % of Basal” value [2] was 331.00%.

In the case of `CC(C)N(Cc1nc(-c2ccccc2)c[nH]1)C(=O)[C@@H](N)Cc1ccc(O)cc1` [Cpd 195], the “MOR GTP binding assay_v1 (% I)” value [2] is reported as 34.00% and the “MOR GTP assay_v1 % of Basal” value [2] is reported as 378.00%.

For `COc1ccc(CN(C(=O)[C@@H](N)Cc2c(C)cc(C(N)=O)cc2C)[C@@H](C)c2nc(-c3ccccc3)c[nH]2)cc1-c1nnn[nH]1` [Cpd 8], the “MOR GTP binding assay_v2 (% I)” value [2] was 13.95% and the EC50 [2] was 1.2 nM.

For `Cc1cc(O)cc(C)c1C[C@H](N)C(=O)N(C)[C@@H](C)c1nc(-c2ccccc2)c[nH]1` [Cpd 207], the EC50 [1] was 8.65 nM and 12 nM, the response vs control in vivo at 30 mg/kg [3, 4] was 49.6% and the “# of pellets, Compound (m) 0.3” value ([3]; dose 0.3, oral, NES mice, fecal output 1 hr) was 11.4. The “Fecal pellet output, Compound (% control) 0.3” value ([3]; dose 0.3, oral, NES mice, vs acclimated control) was 219.2 % control, the “Fecal pellet output, Compound (% NES) 0.3” value ([3]; dose 0.3, oral, vs vehicle NES group) was 100 % NES and the “# of pellets, Compound (m) 0.5” value ([3]; dose 0.5, oral, NES mice, fecal output 1 hr) was 9.4. For the same compound, the “Fecal pellet output, Compound (% control) 0.5” value ([3]; dose 0.5, oral, NES mice, vs acclimated control) was 195.8 % control, the “Fecal pellet output, Compound (% NES) 0.5” value ([3]; dose 0.5, oral, vs vehicle NES group) was 109 % NES and the “# of pellets, Compound (m) 3.0” value ([3]; dose 3.0, oral, NES mice, fecal output 1 hr) was 12 and 7.3. For the same compound, the “Fecal pellet output, Compound (% control) 3.0” value ([3]; dose 3.0, oral, NES mice, vs acclimated control) was 228.8 % control and 202.8 % control, the “Fecal pellet output, Compound (% NES) 3.0” value ([3]; dose 3.0, oral, vs vehicle NES group) was 104.4 % NES and 112.3 % NES and the “# of pellets, Compound (m) 5.0” value ([3]; dose 5.0, oral, NES mice, fecal output 1 hr) was 8.6. The “Fecal pellet output, Compound (% control) 5.0” value ([3]; dose 5.0, oral, NES mice, vs acclimated control) was 179.2 % control, the “Fecal pellet output, Compound (% NES) 5.0” value ([3]; dose 5.0, oral, vs vehicle NES group) was 100 % NES and the “# of pellets, Compound (m) 6.0” value ([3]; dose 6.0, oral, NES mice, fecal output 1 hr) was 7.5. The “Fecal pellet output, Compound (% control) 6.0” value ([3]; dose 6.0, oral, NES mice, vs acclimated control) was 220.6 % control, the “Fecal pellet output, Compound (% NES) 6.0” value ([3]; dose 6.0, oral, vs vehicle NES group) was 69.44 % NES and the “# of pellets, Compound (m) 10.0” value ([3]; dose 10.0, oral, NES mice, fecal output 1 hr) was 4.9 and 6.7 and 5.5 and 4.8. The “Fecal pellet output, Compound (% control) 10.0” value ([3]; dose 10.0, oral, NES mice, vs acclimated control) was 94.2 % control and 139.6 % control and 161.8 % control and 133.3 % control, the “Fecal pellet output, Compound (% NES) 10.0” value ([3]; dose 10.0, oral, vs vehicle NES group) was 42.98 % NES and 77.91 % NES and 50.93 % NES and 73.85 % NES and the “# of pellets, Compound (m) 30.0” value ([3]; dose 30.0, oral, NES mice, fecal output 1 hr) was 3.5 and 3.4. For the same compound, the “Fecal pellet output, Compound (% control) 30.0” value ([3]; dose 30.0, oral, NES mice, vs acclimated control) was 103 % control and 94 % control and the “Fecal pellet output, Compound (% NES) 30” value ([3]; dose 30, oral, vs vehicle NES group) was 32.41 % NES and 52.31 % NES.

In the case of `CCN(C(=O)[C@@H](N)Cc1ccc(O)cc1)[C@@H](C)c1nc(-c2ccccc2)c[nH]1` [Cpd 215], the EC50 [1] is reported as 1060 nM, the “MOR GTP binding assay_v1 (% I)” value [2] is reported as 1.00% and the “MOR GTP assay_v1 % of Basal” value [2] is reported as 606.00%.

With `COc1ccc(CN(C(=O)[C@@H](N)Cc2ccc(O)cc2)[C@@H](C)c2nc(-c3ccccc3)c[nH]2)cc1C(=O)O` [Cpd 261] the “MOR GTP binding assay_v2 (% I)” value [2] was 5.88% and the EC50 [2] was 17 nM.

`C[C@@H](c1nc(-c2ccccc2)c[nH]1)N(Cc1ccccc1)C(=O)[C@@H](N)Cc1ccc(O)cc1` [Cpd 219] was tested, and the EC50 [1] was 3560 nM, the “MOR GTP binding assay_v1 (% I)” value [2] was 1.00% and the “MOR GTP assay_v1 % of Basal” value [2] was 611.00%.

In the case of `Cc1cc(O)cc(C)c1C[C@H](N)C(=O)N(Cc1nc(-c2ccccc2)c[nH]1)C1CCCCC1` [Cpd 190], the EC50 [1] is reported as 3830 nM and the “MOR GTP binding assay_v1 (% I)” value [2] is reported as 70.00%.

For `Cc1cc(C(N)=O)cc(C)c1C[C@H](N)C(=O)N(Cc1ccc(C(=O)O)o1)[C@@H](C)c1nc(-c2ccccc2)c[nH]1` [Cpd 256], the “MOR GTP binding assay_v2 (% I)” value [2] was 29.40% and the EC50 [2] was 13 nM.

In the case of `COC(=O)c1ccc(CN(C(=O)[C@@H](N)Cc2c(C)cc(C(N)=O)cc2C)[C@@H](C)c2nc(-c3ccccc3)c[nH]2)o1` [Cpd 257], the “MOR GTP binding assay_v2 (% I)” value [2] is reported as 10.96% and the EC50 [2] is reported as 3.9 nM.

`COc1ccc(CN(C(=O)[C@@H](N)Cc2c(C)cc(C(N)=O)cc2C)[C@@H](C)c2nc(-c3ccccc3)c[nH]2)cc1C(=O)O` [Cpd 18] was tested, and the “MOR GTP binding assay_v2 (% I)” value [2] was 7.54%, the EC50 [2] was 1 nM and the “Fecal Output (# pellets) cpd” value ([3]; 30 mg/kg oral, novel environment-stressed mice, 1 hr) was 3.1 pellets. It also gave a response vs control in vivo at 30 mg/kg ([3]; 30 mg/kg oral, relative to acclimated control, 1 hr, read-out: Fecal Output cpd % control) of 138% and a response vs control in vivo at 30 mg/kg [3, 4] of 82.7%.

In the case of `CCN(C(=O)[C@@H](N)Cc1c(C)cc(O)cc1C)[C@H](C)c1nc(-c2ccccc2)c[nH]1` [Cpd 217], the EC50 [1] is reported as 82 nM, the “MOR GTP binding assay_v1 (% I)” value [2] is reported as 1.00% and the “MOR GTP assay_v1 % of Basal” value [2] is reported as 599.00%.
